{
  "source": "patent US20080318938A1",
  "about": "“METHODS FOR TREATING ABERRANT CELL PROLIFERATION DISORDERS” (priority 2007, published 2008)",
  "experiment_in_all_cases": "Inhibition of cell proliferation (MTT)",
  "assay_type_in_all_cases": "cell-based",
  "key": {"NC37": {"system": "NC37", "settings": "Homo sapiens, NC-37; NC37, Lymphoma; 48 hours", "procedure": "(§1) Inhibition of cell proliferation is determined in human tumor cell lines. Innoculation density and doubling times for specific cell lines are listed at World Wide Web URL “dtp.nci.nih.gov/docs/misc/common_files/cell_list.html.”\n(§2) • 1. Plate adherent cells the day before starting the experiment in 180 μl growth media (see list hereafter). • 2. Day of experiment, count and plate suspension cells in 180 μl growth media (see list on next page). • 3. Make 10× Compound, vehicle, and chemotherapeutic cocktail • a. Compound (1× to 10×) • i. 10 μM Compound to 100 μM • ii. 3 μM Compound to 30 μM • iii. 1 μM Compound to 10 μM • iv. 0.3 μM Compound to 3 μM • v. 0.1 μM Compound to 1 μM • b. Vehicle • i. PBS, equivalent to the volume used for 10 μM Compound (1× is ˜0.06% PBS) • c. Chemotherapeutic cocktail (1× to 10×): • i. 1 μM Velcade to 10 μM • ii. 100 μM Etoposide to 1 mM • iii. 20 μM Taxol to 200 μM • 4. Add 20 μl of the 10× compound/vehicle/chemotherapeutic cocktail to cells. • 5. Incubate at 37° C., 5% CO2 for 48 hours. • 6. Aspirate media. For suspension cells, spin plate at 1500 RPM for 10 minutes. Use a multichannel pipettor to slowly remove media. • 7. Add 200 μl of Thiazolyl Blue Tetrazolium Bromide (MTT) to each well: 0.863 mg/ml MTT in growth media.\n(§3) Proliferation of several cancer cells was inhibited by compound TA1-1B (which is a particular mixture of the isomers represented by TA1-1A), as shown in the following table (Table 1). The value EC50 is the amount of Compound TA1-1B that results in 50% inhibition of proliferation of the indicated cell type."}, "MOLT4": {"system": "MOLT4", "settings": "Homo sapiens, MOLT-4; MOLT4, Leukemia; 48 hours", "procedure": "as §1, §2, §3"}, "MOLT-3": {"system": "MOLT-3", "settings": "Homo sapiens; MOLT-3, Leukemia; 48 hours", "procedure": "as §1, §2, §3"}, "KG-1": {"system": "KG-1", "settings": "Homo sapiens; KG-1, Leukemia; 48 hours", "procedure": "as §1, §2, §3"}, "HL-60(TB)": {"system": "HL-60(TB)", "settings": "Homo sapiens, Leukemia, 48 hours", "procedure": "as §1, §2, §3"}, "HS 578T": {"system": "HS 578T", "settings": "Homo sapiens, Breast, 48 hours", "procedure": "as §1, §2, §3"}, "Jgamma-1": {"system": "Jgamma-1", "settings": "Homo sapiens, J.gamma1; Jgamma-1, Leukemia; 48 hours", "procedure": "as §1, §2, §3"}, "Ramos": {"system": "Ramos", "settings": "Homo sapiens, Lymphoma, 48 hours", "procedure": "as §1, §2, §3"}, "Karpas299": {"system": "Karpas299", "settings": "Homo sapiens, KARPAS-299; Karpas299, Lymphoma; 48 hours", "procedure": "as §1, §2, §3"}, "HCT-15": {"system": "HCT-15", "settings": "Homo sapiens; HCT-15, Colon; 48 hours", "procedure": "as §1, §2, §3"}, "U937": {"system": "U937", "settings": "Homo sapiens, U-937; U937, Lymphoma; 48 hours", "procedure": "as §1, §2, §3"}, "MDA-MB-435": {"system": "MDA-MB-435", "settings": "Homo sapiens; MDA-MB-435, Breast; 48 hours", "procedure": "as §1, §2, §3"}, "MV-4-11": {"system": "MV-4-11", "settings": "Homo sapiens, MV4-11; MV-4-11, Leukemia; 48 hours", "procedure": "as §1, §2, §3"}, "Raji": {"system": "Raji", "settings": "Homo sapiens, Lymphoma, 48 hours", "procedure": "as §1, §2, §3"}, "D1-1": {"system": "D1-1", "settings": "Homo sapiens; D1-1, Leukemia; 48 hours", "procedure": "as §1, §2, §3"}, "M14": {"system": "M14", "settings": "Homo sapiens; M14, Melanoma; 48 hours", "procedure": "as §1, §2, §3"}, "Reh": {"system": "Reh", "settings": "Homo sapiens, Leukemia, 48 hours", "procedure": "as §1, §2, §3"}, "MALME-3M": {"system": "MALME-3M", "settings": "Homo sapiens, Melanoma, 48 hours", "procedure": "as §1, §2, §3"}, "MC116": {"system": "MC116", "settings": "Homo sapiens; MC116, Lymphoma; 48 hours", "procedure": "as §1, §2, §3"}, "786-0": {"system": "786-0", "settings": "Homo sapiens; 786-0, Renal; 48 hours", "procedure": "as §1, §2, §3"}, "U251": {"system": "U251", "settings": "Homo sapiens, U-251; U251, CNS; 48 hours", "procedure": "as §1, §2, §3"}, "OVCAR-3": {"system": "OVCAR-3", "settings": "Homo sapiens; OVCAR-3, Ovarian; 48 hours", "procedure": "as §1, §2, §3"}, "OVCAR-5": {"system": "OVCAR-5", "settings": "Homo sapiens; OVCAR-5, Ovarian; 48 hours", "procedure": "as §1, §2, §3"}, "HCC-2998": {"system": "HCC-2998", "settings": "Homo sapiens; HCC-2998, Colon; 48 hours", "procedure": "as §1, §2, §3"}, "NCI-H522": {"system": "NCI-H522", "settings": "Homo sapiens; NCI-H522, Non Small Cell Lung; 48 hours", "procedure": "as §1, §2, §3"}, "BT-549": {"system": "BT-549", "settings": "Homo sapiens; BT-549, Breast; 48 hours", "procedure": "as §1, §2, §3"}, "U266B1": {"system": "U266B1", "settings": "Homo sapiens; U266B1, Lymphoma; 48 hours", "procedure": "as §1, §2, §3"}, "A3": {"system": "A3", "settings": "Homo sapiens; A3, Leukemia; 48 hours", "procedure": "as §1, §2, §3"}, "RPMI-8226": {"system": "RPMI-8226", "settings": "Homo sapiens; RPMI-8226, Leukemia; 48 hours", "procedure": "as §1, §2, §3"}, "UACC-62": {"system": "UACC-62", "settings": "Homo sapiens; UACC-62, Melanoma; 48 hours", "procedure": "as §1, §2, §3"}, "GDM-1": {"system": "GDM-1", "settings": "Homo sapiens; GDM-1, Leukemia; 48 hours", "procedure": "as §1, §2, §3"}},
  "data": [
    {"smiles": "CN1CCC[C@H]1CCNC(=O)c1cn2c3c(c(N4CCC(c5cnccn5)C4)c(F)cc3c1=O)Oc1cc3ccccc3cc1-2", "note": "(stereo partly shown) [TA1-1B]", "values": [
      {"measurement": "EC50", "setting": "NC37", "result": 1260, "unit": "nM"},
      {"measurement": "EC50", "setting": "MOLT4", "result": 1220, "unit": "nM"},
      {"measurement": "EC50", "setting": "MOLT-3", "result": 1140, "unit": "nM"},
      {"measurement": "EC50", "setting": "KG-1", "result": 3970, "unit": "nM"},
      {"measurement": "EC50", "setting": "HL-60(TB)", "result": 1650, "unit": "nM"},
      {"measurement": "EC50", "setting": "HS 578T", "result": 1940, "unit": "nM"},
      {"measurement": "EC50", "setting": "Jgamma-1", "result": 1720, "unit": "nM"},
      {"measurement": "EC50", "setting": "Ramos", "result": 1330, "unit": "nM"},
      {"measurement": "EC50", "setting": "Karpas299", "result": 3920, "unit": "nM"},
      {"measurement": "EC50", "setting": "HCT-15", "result": 1510, "unit": "nM"},
      {"measurement": "EC50", "setting": "U937", "result": 4540, "unit": "nM"},
      {"measurement": "EC50", "setting": "MDA-MB-435", "result": 3630, "unit": "nM"},
      {"measurement": "EC50", "setting": "MV-4-11", "result": 5810, "unit": "nM"},
      {"measurement": "EC50", "setting": "Raji", "result": 1880, "unit": "nM"},
      {"measurement": "EC50", "setting": "D1-1", "result": 4160, "unit": "nM"},
      {"measurement": "EC50", "setting": "M14", "result": 4980, "unit": "nM"},
      {"measurement": "EC50", "setting": "Reh", "result": 1320, "unit": "nM"},
      {"measurement": "EC50", "setting": "MALME-3M", "result": 5090, "unit": "nM"},
      {"measurement": "EC50", "setting": "MC116", "result": 3870, "unit": "nM"},
      {"measurement": "EC50", "setting": "786-0", "result": 4340, "unit": "nM"},
      {"measurement": "EC50", "setting": "U251", "result": 2680, "unit": "nM"},
      {"measurement": "EC50", "setting": "OVCAR-3", "result": 4280, "unit": "nM"},
      {"measurement": "EC50", "setting": "OVCAR-5", "result": 2170, "unit": "nM"},
      {"measurement": "EC50", "setting": "HCC-2998", "result": 2540, "unit": "nM"},
      {"measurement": "EC50", "setting": "NCI-H522", "result": 1500, "unit": "nM"},
      {"measurement": "EC50", "setting": "BT-549", "result": 1800, "unit": "nM"},
      {"measurement": "EC50", "setting": "U266B1", "result": 1620, "unit": "nM"},
      {"measurement": "EC50", "setting": "A3", "result": 3630, "unit": "nM"},
      {"measurement": "EC50", "setting": "RPMI-8226", "result": 1370, "unit": "nM"},
      {"measurement": "EC50", "setting": "UACC-62", "result": 4880, "unit": "nM"},
      {"measurement": "EC50", "setting": "GDM-1", "result": 1260, "unit": "nM"}
    ]}
  ]
}
